The test has as its target T1, Human CaV2.2 channels (Homo sapiens, UniProt Q00975).
T1 construct: expressed in transfected cells
The test can be described thus: Fluorescent assay for CaV2.2 channels using potassium depolarization to induce channel opening (FLIPR, Fluo-4). As to conditions: 3 μM test compound, 30 mM KCl, HEK293 cells stably expressing human CaV2.2; read-out: %-Inhib (CaV2.2) @3 μM @30 mM KCl. It is filed as cell-based. Summed up: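 Channel block was read as the baseline-normalized peak Ca²⁺ signal (Fluo-4, 480/535 nm) after a high-KCl depolarizing addition (210 mM KCl buffer). Beforehand, compound sat 15 min at 25 °C on HEK293 cells carrying human CaV2.2, α2δ/β subunits and Kir2.3, in pH 7.4 buffer with 30 mM KCl.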

T1 sequence (Q00975 whole entry): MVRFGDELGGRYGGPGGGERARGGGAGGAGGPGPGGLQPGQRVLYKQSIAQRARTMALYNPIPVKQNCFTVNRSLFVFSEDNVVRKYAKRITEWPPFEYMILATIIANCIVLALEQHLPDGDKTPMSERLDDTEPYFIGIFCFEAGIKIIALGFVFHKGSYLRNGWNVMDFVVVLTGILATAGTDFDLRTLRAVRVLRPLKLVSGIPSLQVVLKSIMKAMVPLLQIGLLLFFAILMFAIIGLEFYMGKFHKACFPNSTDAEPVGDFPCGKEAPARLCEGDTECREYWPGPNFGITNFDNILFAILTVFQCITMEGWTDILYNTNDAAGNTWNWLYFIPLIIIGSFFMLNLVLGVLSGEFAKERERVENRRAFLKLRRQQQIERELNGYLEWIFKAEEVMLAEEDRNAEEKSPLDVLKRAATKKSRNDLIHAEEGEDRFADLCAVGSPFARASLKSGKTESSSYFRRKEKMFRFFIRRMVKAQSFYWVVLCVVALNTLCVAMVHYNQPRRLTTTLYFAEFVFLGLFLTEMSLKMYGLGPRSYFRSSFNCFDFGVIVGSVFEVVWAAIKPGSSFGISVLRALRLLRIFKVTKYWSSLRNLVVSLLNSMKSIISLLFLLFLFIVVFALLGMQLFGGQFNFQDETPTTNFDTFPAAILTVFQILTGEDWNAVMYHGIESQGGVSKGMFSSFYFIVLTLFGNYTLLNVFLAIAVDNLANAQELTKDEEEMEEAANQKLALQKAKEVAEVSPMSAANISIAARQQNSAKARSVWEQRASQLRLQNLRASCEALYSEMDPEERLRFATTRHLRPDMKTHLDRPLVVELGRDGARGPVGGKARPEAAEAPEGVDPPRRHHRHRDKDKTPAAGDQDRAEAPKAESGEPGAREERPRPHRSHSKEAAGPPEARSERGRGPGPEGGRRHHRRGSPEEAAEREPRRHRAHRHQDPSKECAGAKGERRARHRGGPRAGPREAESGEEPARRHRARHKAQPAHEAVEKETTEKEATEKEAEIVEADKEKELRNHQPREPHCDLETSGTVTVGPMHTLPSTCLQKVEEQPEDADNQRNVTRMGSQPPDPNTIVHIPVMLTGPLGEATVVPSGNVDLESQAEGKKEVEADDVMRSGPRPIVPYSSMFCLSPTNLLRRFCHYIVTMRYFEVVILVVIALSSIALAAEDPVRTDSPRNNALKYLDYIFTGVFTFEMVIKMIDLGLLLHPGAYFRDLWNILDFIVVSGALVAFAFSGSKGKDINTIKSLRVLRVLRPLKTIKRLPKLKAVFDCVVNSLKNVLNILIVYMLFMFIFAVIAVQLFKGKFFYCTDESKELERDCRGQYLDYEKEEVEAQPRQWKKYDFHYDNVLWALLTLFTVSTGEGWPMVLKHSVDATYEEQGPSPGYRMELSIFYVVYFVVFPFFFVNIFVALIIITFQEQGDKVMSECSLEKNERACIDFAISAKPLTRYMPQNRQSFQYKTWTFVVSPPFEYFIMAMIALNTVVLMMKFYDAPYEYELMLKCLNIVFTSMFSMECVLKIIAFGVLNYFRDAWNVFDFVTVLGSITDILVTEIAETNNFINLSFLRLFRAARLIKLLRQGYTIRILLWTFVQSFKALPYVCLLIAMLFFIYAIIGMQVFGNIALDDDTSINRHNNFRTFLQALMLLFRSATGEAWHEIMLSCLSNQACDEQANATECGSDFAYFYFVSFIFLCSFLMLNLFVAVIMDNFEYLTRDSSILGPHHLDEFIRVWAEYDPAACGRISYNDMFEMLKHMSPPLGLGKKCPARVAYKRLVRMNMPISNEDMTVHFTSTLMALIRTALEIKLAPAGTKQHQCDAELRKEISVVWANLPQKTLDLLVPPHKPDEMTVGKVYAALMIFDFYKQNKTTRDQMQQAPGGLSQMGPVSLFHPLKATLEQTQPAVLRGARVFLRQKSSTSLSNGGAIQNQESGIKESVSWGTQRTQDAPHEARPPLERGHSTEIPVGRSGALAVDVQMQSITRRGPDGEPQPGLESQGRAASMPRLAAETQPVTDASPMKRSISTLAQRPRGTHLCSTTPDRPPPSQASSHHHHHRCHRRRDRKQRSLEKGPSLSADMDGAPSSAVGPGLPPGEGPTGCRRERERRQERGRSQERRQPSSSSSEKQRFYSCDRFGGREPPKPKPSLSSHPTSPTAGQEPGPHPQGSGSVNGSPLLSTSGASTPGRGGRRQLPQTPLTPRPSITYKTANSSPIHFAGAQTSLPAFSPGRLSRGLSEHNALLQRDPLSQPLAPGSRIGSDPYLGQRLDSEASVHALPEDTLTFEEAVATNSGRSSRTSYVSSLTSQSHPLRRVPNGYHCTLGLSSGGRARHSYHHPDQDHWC
T1 sequence (P54289 25-1103, further chain): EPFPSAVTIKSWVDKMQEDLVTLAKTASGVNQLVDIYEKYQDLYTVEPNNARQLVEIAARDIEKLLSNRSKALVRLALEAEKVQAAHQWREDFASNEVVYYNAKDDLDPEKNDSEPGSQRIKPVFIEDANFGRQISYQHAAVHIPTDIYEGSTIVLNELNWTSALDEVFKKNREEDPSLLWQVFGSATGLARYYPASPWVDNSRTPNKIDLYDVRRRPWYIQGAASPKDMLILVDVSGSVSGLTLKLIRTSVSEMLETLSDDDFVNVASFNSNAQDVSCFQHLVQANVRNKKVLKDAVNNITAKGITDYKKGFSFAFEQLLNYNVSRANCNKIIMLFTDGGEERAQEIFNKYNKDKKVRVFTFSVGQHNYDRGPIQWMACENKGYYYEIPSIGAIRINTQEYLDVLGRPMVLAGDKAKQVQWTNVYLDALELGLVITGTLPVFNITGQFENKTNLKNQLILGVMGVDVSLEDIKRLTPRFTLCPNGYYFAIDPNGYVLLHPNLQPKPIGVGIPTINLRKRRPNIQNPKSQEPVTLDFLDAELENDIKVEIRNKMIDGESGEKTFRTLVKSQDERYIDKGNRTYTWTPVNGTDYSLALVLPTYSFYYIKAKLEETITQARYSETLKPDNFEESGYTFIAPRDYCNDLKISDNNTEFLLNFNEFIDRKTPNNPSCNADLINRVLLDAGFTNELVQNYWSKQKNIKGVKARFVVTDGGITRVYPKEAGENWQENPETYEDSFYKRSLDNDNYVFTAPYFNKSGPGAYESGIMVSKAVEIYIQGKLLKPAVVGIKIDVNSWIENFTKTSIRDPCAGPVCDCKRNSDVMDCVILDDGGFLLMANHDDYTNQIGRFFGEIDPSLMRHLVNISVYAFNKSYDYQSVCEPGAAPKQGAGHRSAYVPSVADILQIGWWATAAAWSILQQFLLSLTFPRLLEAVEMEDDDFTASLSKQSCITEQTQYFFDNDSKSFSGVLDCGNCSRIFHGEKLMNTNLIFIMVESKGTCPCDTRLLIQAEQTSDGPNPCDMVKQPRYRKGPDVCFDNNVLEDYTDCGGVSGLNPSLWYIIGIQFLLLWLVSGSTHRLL
T1 sequence (P54284 whole entry, further chain): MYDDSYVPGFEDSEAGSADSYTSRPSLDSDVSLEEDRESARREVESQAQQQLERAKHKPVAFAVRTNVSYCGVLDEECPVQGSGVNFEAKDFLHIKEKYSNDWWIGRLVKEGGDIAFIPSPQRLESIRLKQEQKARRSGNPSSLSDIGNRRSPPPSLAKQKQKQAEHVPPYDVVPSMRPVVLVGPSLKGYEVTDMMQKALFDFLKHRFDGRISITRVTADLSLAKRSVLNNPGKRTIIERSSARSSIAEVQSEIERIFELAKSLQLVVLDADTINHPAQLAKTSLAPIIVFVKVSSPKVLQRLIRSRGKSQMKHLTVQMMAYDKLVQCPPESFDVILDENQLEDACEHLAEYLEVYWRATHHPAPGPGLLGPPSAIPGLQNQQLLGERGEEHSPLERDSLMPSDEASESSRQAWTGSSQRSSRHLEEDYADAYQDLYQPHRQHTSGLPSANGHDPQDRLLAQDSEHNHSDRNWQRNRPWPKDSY

Take `Cc1c(-c2ccc(F)cc2)c(C(=O)N(C)CC2CCOC2)n(Cc2ccccc2)c1C(F)(F)F` (centres unmarked) [SC-226, 1-Benzyl-3-(4-fluorophenyl)-N,4-dimethyl-N-(tetrahydro-furan-3-yl-methyl)-5-(trifluoromethyl)-1H-pyrrole-2-carboxylic acid amide]: the inhibition at 3 µM was > 95%.

Take `Cc1c(-c2ccc(Cl)cc2)c(C(=O)N2CCS(=O)(=O)CC2)n(Cc2ccccc2)c1C(F)(F)F` [SC-26, [1-Benzyl-3-(4-chlorophenyl)-4-methyl-5-(trifluoromethyl)-1H-pyrrol-2-yl]-(1,1-dioxo-[1,4]thiazinan-4-yl)-methanone]: the inhibition at 3 µM fell in the range of 75 to 95%.

Consider `Cc1c(-c2ccc(Cl)cc2)c(C(=O)N2CCOCC2)n(Cc2cccc(Cl)c2)c1C(F)(F)F` [SC-25, [3-(4-Chlorophenyl)-1-[(3-chlorophenyl)-methyl]-4-methyl-5-(trifluoromethyl)-1H-pyrrol-2-yl]-morpholin-4-yl-methanone], for which the inhibition at 3 µM fell in the range of 75 to 95%.

Take `CC(C)N(C)C(=O)c1c(-c2ccc(Cl)cc2)cc(C(F)(F)F)n1Cc1ccccc1` [SC-213, 1-Benzyl-3-(4-chlorophenyl)-N-isopropyl-N-methyl-5-(trifluoromethyl)-1H-pyrrole-2-carboxylic acid amide]: the inhibition at 3 µM is > 95%.

For the compound `CC(C)NC(=O)c1c(-c2ccc(Cl)cc2)cc(C(F)(F)F)n1Cc1ccccc1` [SC-214, 1-Benzyl-3-(4-chlorophenyl)-N-isopropyl-5-(trifluoromethyl)-1H-pyrrole-2-carboxylic acid amide], the inhibition at 3 µM lay within 75 to 95%.

Turning to `Cc1c(-c2ccc(F)cc2)c(C(=O)N2CCOCC2)n(Cc2ccccc2)c1C(F)(F)F` [SC-101, [1-Benzyl-3-(4-fluorophenyl)-4-methyl-5-(trifluoromethyl)-1H-pyrrol-2-yl]-morpholin-4-yl-methanone], the inhibition at 3 µM was > 95%.

With `CS(=O)(=O)C1CCN(C(=O)c2c(-c3ccc(Cl)cc3)cc(C(F)(F)F)n2Cc2ccccc2)C1` (centres unmarked) [SC-185, [1-Benzyl-3-(4-chlorophenyl)-5-(trifluoromethyl)-1H-pyrrol-2-yl]-(3-methylsulfonyl-pyrrolidin-1-yl)-methanone], the inhibition at 3 µM was > 95%.

On to `Cc1c(-c2ccc(Cl)cc2)c(C(=O)N2CC(F)(F)C2)n(Cc2ccccc2)c1C(F)(F)F` [SC-93, [1-Benzyl-3-(4-chlorophenyl)-4-methyl-5-(trifluoromethyl)-1H-pyrrol-2-yl]-(3,3-difluoro-azetidin-1-yl)-methanone], for which the inhibition at 3 µM fell in the range of 75 to 95%.

`Cc1c(-c2ccc(Cl)cc2)c(C(=O)N(C)C(C)(C)CO)n(Cc2ccccc2)c1C(F)(F)F` [SC-126, 1-Benzyl-3-(4-chlorophenyl)-N-(2-hydroxy-1,1-dimethyl-ethyl)-N,4-dimethyl-5-(trifluoromethyl)-1H-pyrrole-2-carboxylic acid amide]: the inhibition at 3 µM is > 95%.

`Cc1c(-c2ccc(OC(F)(F)F)cc2)c(C(=O)N2CCOC(C)(C)C2)n(Cc2ccccc2)c1C(F)(F)F` [SC-242, [1-Benzyl-4-methyl-5-(trifluoromethyl)-3-[4-(trifluoromethyloxy)-phenyl]-1H-pyrrol-2-yl]-(2,2-dimethyl-morpholin-4-yl)-methanone]: the inhibition at 3 µM fell in the range of 75 to 95%.

For the compound `CN(Cc1cnccn1)C(=O)c1c(-c2ccc(Cl)cc2)cc(C(F)(F)F)n1Cc1ccccc1` [SC-210, 1-Benzyl-3-(4-chlorophenyl)-N-methyl-N-(pyrazin-2-yl-methyl)-5-(trifluoromethyl)-1H-pyrrole-2-carboxylic acid amide], the inhibition at 3 µM was 75 to 95%.

Turning to `Cc1c(-c2ccc(Cl)cc2F)c(C(=O)N2CCOC(C)(C)C2)n(Cc2ccccc2)c1C(F)(F)F` [SC-155, [1-Benzyl-3-(4-chloro-2-fluoro-phenyl)-4-methyl-5-(trifluoromethyl)-1H-pyrrol-2-yl]-(2,2-dimethyl-morpholin-4-yl)-methanone], the inhibition at 3 µM was > 95%.

Regarding `Cc1cc(CN(C)C(=O)c2c(-c3ccc(Cl)cc3)c(C)c(C(F)(F)F)n2Cc2ccccc2)no1` [SC-142, 1-Benzyl-3-(4-chlorophenyl)-N,4-dimethyl-N-[(5-methyl-isoxazol-3-yl)-methyl]-5-(trifluoromethyl)-1H-pyrrole-2-carboxylic acid amide], the inhibition at 3 µM is > 95%.

As to `Cc1c(-c2ccc(Cl)cc2)c(C(=O)N(C)CC2CCCO2)n(Cc2ccccc2)c1C(F)(F)F` (centres unmarked) [SC-134, 1-Benzyl-3-(4-chlorophenyl)-N,4-dimethyl-N-(tetrahydro-furan-2-yl-methyl)-5-(trifluoromethyl)-1H-pyrrole-2-carboxylic acid amide], the inhibition at 3 µM was > 95%.

Take `Cc1c(-c2ccc(Cl)cc2F)c(C(=O)N(C)CCS(C)(=O)=O)n(Cc2ccccc2)c1C(F)(F)F` [SC-64, 1-Benzyl-3-(4-chloro-2-fluoro-phenyl)-N,4-dimethyl-N-(2-methylsulfonyl-ethyl)-5-(trifluoromethyl)-1H-pyrrole-2-carboxylic acid amide]: the inhibition at 3 µM is > 95%.

Consider `Cc1cnc(CN(C)C(=O)c2c(-c3ccc(Cl)cc3)cc(C(F)(F)F)n2Cc2ccccc2)cn1` [SC-215, 1-Benzyl-3-(4-chlorophenyl)-N-methyl-N-[(5-methyl-pyrazin-2-yl)-methyl]-5-(trifluoromethyl)-1H-pyrrole-2-carboxylic acid amide], for which the inhibition at 3 µM was > 95%.

On to `Cc1c(-c2ccc(C(F)(F)F)cc2)c(C(=O)N(C)C2CC2)n(Cc2ccccc2)c1C(F)(F)F` [SC-230, 1-Benzyl-N-cyclopropyl-N,4-dimethyl-5-(trifluoromethyl)-3-[4-(trifluoromethyl)-phenyl]-1H-pyrrole-2-carboxylic acid amide], for which the inhibition at 3 µM was in the range of 40 to 75%.

With `Cc1c(-c2ccc(Cl)cc2F)c(C(=O)N(C)C2CCS(=O)(=O)CC2)n(Cc2ccccc2)c1C(F)(F)F` [SC-160, 1-Benzyl-3-(4-chloro-2-fluoro-phenyl)-N-(1,1-dioxo-thian-4-yl)-N,4-dimethyl-5-(trifluoromethyl)-1H-pyrrole-2-carboxylic acid amide], the inhibition at 3 µM is > 95%.

Take `CN(CC1CC1)C(=O)c1c(-c2ccc(Cl)cc2)cc(C(F)(F)F)n1Cc1ccccc1` [SC-76, 1-Benzyl-3-(4-chlorophenyl)-N-(cyclopropyl-methyl)-N-methyl-5-(trifluoromethyl)-1H-pyrrole-2-carboxylic acid amide]: the inhibition at 3 µM lay within 75 to 95%.

In the case of `Cc1c(-c2ccc(Cl)cc2)c(C(=O)N(C)C(C)C)n(Cc2ccccc2)c1C(F)(F)F` [SC-149, 1-Benzyl-3-(4-chlorophenyl)-N-isopropyl-N,4-dimethyl-5-(trifluoromethyl)-1H-pyrrole-2-carboxylic acid amide], the inhibition at 3 µM was > 95%.

Consider `Cc1c(-c2ccc(Cl)cc2)c(C(=O)N(C)CCC2CCCO2)n(Cc2ccccc2)c1C(F)(F)F` (centres unmarked) [SC-133, 1-Benzyl-3-(4-chlorophenyl)-N,4-dimethyl-N-(2-tetrahydro-furan-2-yl-ethyl)-5-(trifluoromethyl)-1H-pyrrole-2-carboxylic acid amide], for which the inhibition at 3 µM was > 95%.

As for `CN(C(=O)c1c(-c2ccc(Cl)cc2)cc(C(F)(F)F)n1Cc1ccccc1)C1CCS(=O)(=O)CC1` [SC-193, 1-Benzyl-3-(4-chlorophenyl)-N-(1,1-dioxo-thian-4-yl)-N-methyl-5-(trifluoromethyl)-1H-pyrrole-2-carboxylic acid amide], the inhibition at 3 µM is > 95%.

For the compound `Cc1c(-c2ccc(F)c(Cl)c2)c(C(=O)N2CCOCC2)n(Cc2ccccc2)c1C(F)(F)F` [SC-104, [1-Benzyl-3-(3-chloro-4-fluoro-phenyl)-4-methyl-5-(trifluoromethyl)-1H-pyrrol-2-yl]-morpholin-4-yl-methanone], the inhibition at 3 µM lay in the range of 75 to 95%.

For `Cc1c(-c2ccc(Cl)cc2)c(C(=O)N(C)Cc2cnc(N(C)C)nc2)n(Cc2ccccc2)c1C(F)(F)F` [SC-152, 1-Benzyl-3-(4-chlorophenyl)-N-[(2-dimethylamino-pyrimidin-5-yl)-methyl]-N,4-dimethyl-5-(trifluoromethyl)-1H-pyrrole-2-carboxylic acid amide], the inhibition at 3 µM was > 95%.

On to `Cc1c(-c2ccc(Cl)c(F)c2)c(C(=O)N(C)CC(C)(C)C)n(Cc2ccccc2)c1C(F)(F)F` [SC-250, 1-Benzyl-3-(4-chloro-3-fluoro-phenyl)-N-(2,2-dimethyl-propyl)-N,4-dimethyl-5-(trifluoromethyl)-1H-pyrrole-2-carboxylic acid amide], for which the inhibition at 3 µM lay within 40 to 75%.

For the compound `CN(CC(C)(C)O)C(=O)c1c(-c2ccc(Cl)cc2)cc(C(F)(F)F)n1Cc1cccc(Cl)c1` [SC-70, 3-(4-Chlorophenyl)-1-[(3-chlorophenyl)-methyl]-N-(2-hydroxy-2-methyl-propyl)-N-methyl-5-(trifluoromethyl)-1H-pyrrole-2-carboxylic acid amide], the inhibition at 3 µM is > 95%.

`Cc1c(-c2ccc(Cl)cc2F)c(C(=O)N(C)CC(C)(C)C)n(Cc2ccccc2)c1C(F)(F)F` [SC-59, 1-Benzyl-3-(4-chloro-2-fluoro-phenyl)-N-(2,2-dimethyl-propyl)-N,4-dimethyl-5-(trifluoromethyl)-1H-pyrrole-2-carboxylic acid amide]: the inhibition at 3 µM was > 95%.

On to `CC(C)(CO)CNC(=O)c1c(-c2ccc(Cl)cc2)cc(C(F)(F)F)n1Cc1ccccc1` [SC-177, 1-Benzyl-3-(4-chlorophenyl)-N-(3-hydroxy-2,2-dimethyl-propyl)-5-(trifluoromethyl)-1H-pyrrole-2-carboxylic acid amide], for which the inhibition at 3 µM is > 95%.

Take `Cc1c(-c2ccc(F)c(Cl)c2)c(C(=O)N2CC(F)(F)C2)n(Cc2ccccc2)c1C(F)(F)F` [SC-99, [1-Benzyl-3-(3-chloro-4-fluoro-phenyl)-4-methyl-5-(trifluoromethyl)-1H-pyrrol-2-yl]-(3,3-difluoro-azetidin-1-yl)-methanone]: the inhibition at 3 µM fell in the range of 40 to 75%.

(Values after patent publication US9302988B2, “Fluoromethyl-substituted pyrrole carboxamides” (GRÜNENTHAL GMBH, priority 2012, dated 2016).)
